{
  "source": "paper PMC11343776",
  "about": "(Clinical Pharmacokinetics, 2024)",
  "key": {"[1]": {"tested_on": "ROCK1/2", "assay": "In vitro cellular kinase inhibition: ROCK1/2", "format": "cell-based"}, "[2]": {"tested_on": "CYP3A", "settings": "capivasertib 400 mg b.i.d., intermittent schedule; cited from earlier work"}, "[3]": {"assay": "Population pharmacokinetic model of capivasertib plasma concentrations", "format": "in vivo, patients with advanced or metastatic solid tumours"}, "[4]": {"settings": "healthy subjects; cited from earlier work"}, "[5]": {"assay": "Model simulations and covariate assessment", "set-up": "species or system patients with advanced or metastatic solid tumours", "settings": "for decrease of CL/F after approximately 120 h: multiple doses"}, "[6]": {"settings": "dose range 80–800 mg; cited from earlier work"}, "[7]": {"tested_on": "CYP3A4", "settings": "single dose capivasertib 80 mg; cited from earlier work"}, "[8]": {"settings": "400 mg b.i.d. (4/3) after multiple doses"}, "[9]": {"settings": "body weight 47 kg vs 67 kg reference"}},
  "note": "Entries after “also recorded” stand apart in the source; their conditions may differ.",
  "data": [
    {"smiles": "NC1(C(=O)N[C@@H](CCO)c2ccc(Cl)cc2)CCN(c2nc[nH]c3nccc2-3)CC1", "note": "[capivasertib]", "values": [
      {"measurement": "inhibition of ROCK-mediated phosphorylation of cofilin", "setting": "[1]", "result": "not effective"},
      {"measurement": "increase in midazolam exposure", "setting": "[2]", "result": "up to 75%"},
      {"measurement": "effective t½", "setting": "[3]; 400 mg b.i.d. (4/3)", "result": 8.34, "unit": "h"},
      {"measurement": "apparent volume of distribution at steady state", "setting": "[3]; at 400 mg", "result": 255.6, "unit": "L"},
      {"measurement": "Lag1_tab absorption lag time for tablets", "setting": "[3]; final model estimate, semi-fasted or fed", "result": 0.21, "unit": "h"},
      {"measurement": "fraction of dose absorbed by zero-order process", "setting": "[3]; oral", "result": 20, "unit": "%"},
      {"measurement": "fraction of dose absorbed using the first-order mechanism", "setting": "[3]; oral", "result": 80, "unit": "%"},
      {"measurement": "time to maximum concentration", "setting": "[3]; slight variations with dose level, body weight, food status", "result": 1.4, "unit": "h"},
      {"measurement": "renal clearance as share of total clearance", "setting": "[4]", "result": 21, "unit": "%"},
      {"measurement": "median AUC12h,ss", "setting": "[5]; [8]", "result": 7730, "unit": "ng·h/mL"},
      {"measurement": "median Cmax,ss", "setting": "[5]; [8]", "result": 1340, "unit": "ng/mL"},
      {"measurement": "decrease of CL/F after approximately 120 h", "setting": "[5]; 400 mg b.i.d.", "result": 18, "unit": "%"},
      {"measurement": "decrease of CL/F after approximately 120 h", "setting": "[5]; 480 mg b.i.d.", "result": 22, "unit": "%"},
      {"measurement": "dose proportionality of AUC and Cmax", "setting": "[5]; 80–480 mg after multiple doses", "result": "proportional; also recorded: approximately proportionally"},
      {"measurement": "dose proportionality of AUC and Cmax", "setting": "[5]; beyond 480 mg after multiple doses", "result": "more than proportional; also recorded: more than proportionally"},
      {"measurement": "increase in AUC12h,ss", "setting": "[5]; [9]", "result": 14, "unit": "%"},
      {"measurement": "increase in Cmax,ss", "setting": "[5]; [9]", "result": 14, "unit": "%"},
      {"measurement": "reduction in CLss/F", "setting": "[5]; [9]", "result": 12, "unit": "%"},
      {"measurement": "predicted impact of significant covariates on exposure to capivasertib", "setting": "[5]; body weight, dose, paclitaxel, food, formulation", "result": "< 20", "unit": "%"},
      {"measurement": "increase in CLss/F", "setting": "[5]; concomitant paclitaxel vs no paclitaxel", "result": 20, "unit": "%"},
      {"measurement": "time after which steady state is achieved", "setting": "[5]; simulations, three schedules, different dose levels", "result": "approximately 120 h"},
      {"measurement": "dose proportionality of plasma exposure", "setting": "[6]", "result": "approximately dose proportional"},
      {"measurement": "terminal half-life (t½)", "setting": "[6]", "result": "approximately 10 hours"},
      {"measurement": "terminal half-life (t½), range", "setting": "[6]", "result": "7 to 15", "unit": "h"},
      {"measurement": "increase of capivasertib AUC by itraconazole", "setting": "[7]", "result": 95, "unit": "%"}
    ]}
  ]
}
